Data on 18 compounds can be found in US4044134A, “Fused pyrimidin-4(3H)-ones as antiallergy agents” (Pfizer Inc., priority 1976, dated 1977).

Counter-ions that a name gives are not always drawn. Like-named read-outs stand apart in the source and are kept apart here.

In the experiment the test system is passive cutaneous anaphylaxis (PCA) reaction. Put plainly: passive cutaneous anaphylaxis (PCA) test, i.v. or oral administration. The class given is in vivo, male Charles River Wistar rats. To be noted: Rattus norvegicus, read-out: degree (%) of protection, PCA test. The method, then:
In the PCA test, normal animals are injected intradermally (i.d.) with antibodies contained in serum obtained from actively sensitized animals. The animals are then challenged intravenously with antigen mixed with a dye such as Evans' Blue. The increased capillary-permeability caused by the antigen-antibody reaction causes the dye to leak from the site of the antibody injection. The test animals are then asphyxiated and the intensity of the reaction determined by measuring the diameter and intensity of the blue coloration on the inner surface of the animals skin. […] The ability of agents to interfere with PCA reactions is measured in male Charles River Wistar rats, 170-210 g. […] Hyperimmune antisera to hen egg albumin is prepared according to Orange, et al., J. Exptl. […] Forty-eight hours prior to antigen challenge the reaginic antisera is injected intradermally (i.d.) into the shaved skin of a normal rat's back; 5 hours before challenge the hyperimmune antisera is similarly injected; 5 hours later, at a third site, 60 mcg. histamine dihydrochloride is injected i.d. as a check for antihistaminic and unspecific types of blockage; the compounds of the instant invention or saline are then administered i.v. and immediately followed by 2.5 mg. Evan's blue dye and 5 mg. egg albumin in saline. In the case of oral administration Evan's blue dye and egg albumen are given five minutes after administration of the drug. Thirty minutes later the animals are asphyxiated using chloroform and the skin of the back removed and reversed for observation. A score is assigned each injection site equal to the product of the diameter of the site in mm. and a grade of 0.1, 0.5, 1, 2, 3 or 4 proportional to intensity of dye coloration. The scores for a given injection site are summed for each group of 8 animals and compared to the saline treated controls. The difference is expressed as percent blockade due to the compound employed. […] Disodium cromoglycate, a commerial antiallergy agent, is included for comparison. [drawing 3]

For `CCOC(=O)c1nc2nc3c(OC)c(OC)ccc3cc2c(=O)[nH]1` [COOC2 H5/H/H/H/OCH3/OCH3, Ethyl 8,9-Dimethoxypyrimido[4,5-b]-Quinolin-4(3H)-One-2-Carboxylate], under “iv, I.V.”, the inhibition in vivo at 0.3 mg/kg came to 39% and the inhibition in vivo at 3 mg/kg worked out at 100%. Further, the inhibition in vivo at 10 mg/kg (Oral) turned out to be 0%. Further, the inhibition in vivo at 60 mg/kg (Oral, 60 mg/kg) worked out at 26%.

On to `CCCCOc1cc2nc3nc(C(=O)OCC)[nH]c(=O)c3cc2cc1OCC` [COOC2 H5/H/H/OC2 H5/O-(n-C4 H9)/H], for which, for the setting “iv, I.V.”, the inhibition in vivo at 0.03 mg/kg was 0%, the inhibition in vivo at 0.1 mg/kg came to 28%, the inhibition in vivo at 0.3 mg/kg was 44% and the inhibition in vivo at 1 mg/kg was found to be 95%. In addition, the inhibition in vivo at 3 mg/kg (iv, I.V.) worked out at 90%. In addition, under “Oral”, the inhibition in vivo at 1 mg/kg was determined as 3%, the inhibition in vivo at 3 mg/kg turned out to be 43% and the inhibition in vivo at 10 mg/kg worked out at 67%.

On to `CCOC(=O)c1nc2nc3cc(OCC)c(OCC)cc3cc2c(=O)[nH]1` [COOC2 H5/H/H/OC2 H5/OC2 H5/H], for which, under “iv, I.V.”, the inhibition in vivo at 0.003 mg/kg was 21%, the inhibition in vivo at 0.01 mg/kg turned out to be 43%, the inhibition in vivo at 0.03 mg/kg stood at 60% and the inhibition in vivo at 0.1 mg/kg is 90%. The inhibition in vivo at 3 mg/kg (iv, I.V.) is 100%. Moreover, for the setting “Oral”, the inhibition in vivo at 0.3 mg/kg turned out to be 42%, the inhibition in vivo at 1 mg/kg came to 40%, the inhibition in vivo at 3 mg/kg is 64% and the inhibition in vivo at 10 mg/kg turned out to be 81%.

For `CCOC(=O)c1nc2nc3cc(OCc4ccccc4)c(OCC)cc3cc2c(=O)[nH]1` [COOC2 H5/H/H/OC2 H5/OC7 H7/H], under “iv, I.V.”, the inhibition in vivo at 0.1 mg/kg was 3%, the inhibition in vivo at 0.3 mg/kg was determined as 30% and the inhibition in vivo at 3 mg/kg came to 71%. Besides, under “Oral”, the inhibition in vivo at 10 mg/kg was 0% and the inhibition in vivo at 30 mg/kg was determined as 0%.

Turning to `CCOC(=O)c1nc2nc3cc(OC)c(OCC)cc3cc2c(=O)[nH]1` [COOC2 H5/H/H/OC2 H5/OCH3/H], for the setting “iv, I.V.”, the inhibition in vivo at 0.003 mg/kg worked out at 50%, the inhibition in vivo at 0.01 mg/kg stood at 72%, the inhibition in vivo at 0.03 mg/kg turned out to be 85% and the inhibition in vivo at 0.1 mg/kg is 99%. Besides, the inhibition in vivo at 3 mg/kg (iv, I.V.) worked out at 100%. For the same compound, for the setting “Oral”, the inhibition in vivo at 0.3 mg/kg is 56%, the inhibition in vivo at 1 mg/kg came to 76%, the inhibition in vivo at 3 mg/kg worked out at 83% and the inhibition in vivo at 10 mg/kg stood at 92%.

As for `CCOC(=O)c1nc2nc3ccc(OCc4ccccc4)cc3cc2c(=O)[nH]1` [COOC2 H5/H/H/OC7 H7/H/H, ethyl 7-benzyloxypyrimido-[4,5-b]quinolin-4(3H) one-2-carboxylate], under “iv, I.V.”, the inhibition in vivo at 0.3 mg/kg is 23% and the inhibition in vivo at 3 mg/kg is 85%. Moreover, where the note is “Oral”, the inhibition in vivo at 3 mg/kg came to 3% and the inhibition in vivo at 10 mg/kg was found to be 60%.

As to `CCOC(=O)c1nc2nc3ccc(OC)cc3cc2c(=O)[nH]1` [COOC2 H5/H/H/OCH3/H/H, Ethyl 7-Methoxypyrimido[4,5-b]-Quinolin-4(3H)-One-2-Carboxylate], for the setting “iv, I.V.”, the inhibition in vivo at 0.1 mg/kg stood at 68%, the inhibition in vivo at 0.3 mg/kg worked out at 87% and the inhibition in vivo at 3 mg/kg came out at 100%. Also, where the note is “Oral”, the inhibition in vivo at 3 mg/kg was 32% and the inhibition in vivo at 10 mg/kg was 43%.

For the compound `CCOC(=O)c1nc2nc3c(OC)cc(OC)cc3cc2c(=O)[nH]1` [COOC2 H5/H/H/OCH3/H/OCH3], for the setting “iv, I.V.”, the inhibition in vivo at 0.03 mg/kg amounted to 14%, the inhibition in vivo at 0.3 mg/kg worked out at 38% and the inhibition in vivo at 3 mg/kg worked out at 97%. The inhibition in vivo at 30 mg/kg (Oral) came to 41%.

As for `CCOC(=O)c1nc2nc3cc(OCC)c(OC)cc3cc2c(=O)[nH]1` [COOC2 H5/H/H/OCH3/OC2 H5/H, Ethyl 7-methoxy-8-ethoxypyrimido[4,5-b]quinoline-4(3H)-one-2-carboxylate], where the note is “iv, I.V.”, the inhibition in vivo at 0.003 mg/kg came to 66%, the inhibition in vivo at 0.01 mg/kg turned out to be 57%, the inhibition in vivo at 0.03 mg/kg amounted to 85% and the inhibition in vivo at 0.1 mg/kg came to 94%. The inhibition in vivo at 3 mg/kg (iv, I.V.) came out at 97%. Moreover, under “Oral”, the inhibition in vivo at 0.3 mg/kg came to 31%, the inhibition in vivo at 1 mg/kg was 44%, the inhibition in vivo at 3 mg/kg was 52% and the inhibition in vivo at 10 mg/kg came out at 73%. Besides, the inhibition in vivo at 30 mg/kg (Oral) stood at 80%.

With `CCOC(=O)c1nc2nc3cc(OCc4ccccc4)c(OC)cc3cc2c(=O)[nH]1` [COOC2 H5/H/H/OCH3/OC7 H7/H, ethyl 7-methoxy-8-benzyloxypyrimido[4,5-b]quinolin-4(3H)one-2-carboxylate], under “iv, I.V.”, the inhibition in vivo at 0.3 mg/kg worked out at 23% and the inhibition in vivo at 3 mg/kg was determined as 94%.

In the case of `CCOC(=O)c1nc2nc3c(OC)c(OC)c(OC)cc3cc2c(=O)[nH]1` [COOC2 H5/H/H/OCH3/OCH3/OCH3], where the note is “iv, I.V.”, the inhibition in vivo at 0.03 mg/kg came out at 33%, the inhibition in vivo at 0.3 mg/kg is 23% and the inhibition in vivo at 3 mg/kg is 88%. The inhibition in vivo at 10 mg/kg (Oral) came out at 0%.

For the compound `CCOC(=O)c1nc2nc3cc(O)c(OC)cc3cc2c(=O)[nH]1` [COOC2 H5/H/H/OCH3/OH/H, Ethyl 7-Methoxy-8-Hydroxypyrimido[4,5-b]Quinolin-4(3H)One-2-Carboxylate], under “iv, I.V.”, the inhibition in vivo at 0.003 mg/kg turned out to be 0%, the inhibition in vivo at 0.3 mg/kg was determined as 100% and the inhibition in vivo at 3 mg/kg came to 100%.

For the compound `CCOC(=O)c1nc2nc3ccc(O)cc3cc2c(=O)[nH]1` [COOC2 H5/H/H/OH/H/H, ethyl 7-hydroxypyrimido [4,5-b]quinolin-4(3H)one-2-carboxylate hemitrifluoroacetate], where the note is “iv, I.V.”, the inhibition in vivo at 0.03 mg/kg came out at 21% and the inhibition in vivo at 0.3 mg/kg was found to be 92%. Where the note is “Oral”, the inhibition in vivo at 3 mg/kg was 4% and the inhibition in vivo at 10 mg/kg came out at 13%.

In the case of `CCOC(=O)c1nc2nc3cc(OC)c(O)cc3cc2c(=O)[nH]1` [COOC2 H5/H/H/OH/OCH3/H, Ethyl 7-Hydroxy-8-Methoxypyrimido[4,5-b]Quinolin-4(3H)One-2-Carboxylate Trifluoroacetate], the inhibition in vivo at 0.0003 mg/kg (iv, I.V., 0.0003 mg/kg) was determined as 38%. Where the note is “iv, I.V.”, the inhibition in vivo at 0.003 mg/kg came out at 94%, the inhibition in vivo at 0.01 mg/kg came to 98% and the inhibition in vivo at 0.03 mg/kg came to 97%. In addition, the inhibition in vivo at 30 mg/kg (Oral) amounted to 6%.

In the case of `CCOC(=O)c1nc2nc3ccc(SC)cc3cc2c(=O)[nH]1` [COOC2 H5/H/H/SCH3/H/H, Ethyl 7-Methylthiopyrimido[4,5-b]quinolin-4(3H)-One-2-Carboxylate], where the note is “iv, I.V.”, the inhibition in vivo at 0.03 mg/kg amounted to 8%, the inhibition in vivo at 0.3 mg/kg stood at 91% and the inhibition in vivo at 3 mg/kg was 88%. Further, under “Oral”, the inhibition in vivo at 1 mg/kg came out at 0%, the inhibition in vivo at 3 mg/kg turned out to be 21%, the inhibition in vivo at 10 mg/kg stood at 66% and the inhibition in vivo at 30 mg/kg was 100%.

On to `CCOC(=O)c1nc2nc3ccc([S+](C)[O-])cc3cc2c(=O)[nH]1` (centres unmarked) [COOC2 H5/H/H/SOCH3/H/H, Ethyl 7-Methylsulfinylpyrimido[4,5-b]quinoline-4(3H)-One-2-Carboxylate], for which, where the note is “iv, I.V.”, the inhibition in vivo at 0.03 mg/kg was determined as 0%, the inhibition in vivo at 0.3 mg/kg stood at 58% and the inhibition in vivo at 3 mg/kg was found to be 100%. The inhibition in vivo at 30 mg/kg (Oral) is 12%.

Regarding `CCOC(=O)c1nc2nc3c(OC)ccc(OC)c3cc2c(=O)[nH]1` [COOC2 H5/H/OCH3/H/H/OCH3], under “iv, I.V.”, the inhibition in vivo at 0.03 mg/kg came to 0%, the inhibition in vivo at 0.3 mg/kg is 25% and the inhibition in vivo at 3 mg/kg worked out at 100%. Also, where the note is “Oral”, the inhibition in vivo at 30 mg/kg amounted to 23%.

`COc1cc2cc3c(=O)[nH]c(C(=O)OCCO)nc3nc2cc1OC` [COOCH2 CH2 OH/H/H/OCH3/OCH3/H, 2-hydroxyethyl 7,8-Dimethoxy-pyrimidin[4,5-b]quinolin-4-(3H)-One-2-Carboxylate]: for the setting “iv, I.V.”, the inhibition in vivo at 0.03 mg/kg came to 92%, the inhibition in vivo at 0.3 mg/kg is 94% and the inhibition in vivo at 3 mg/kg was found to be 97%. Further, the inhibition in vivo at 10 mg/kg (Oral) came out at 65%.
